The values that follow come from publication PMC10341634, “Vasodilating Effects of Antispasmodic Agents and Their Cytotoxicity in Vascular Smooth Muscle Cells and Endothelial Cells—Potential Application in Microsurgery” (International Journal of Molecular Sciences, 2023).

Where two headings read alike, the source gives them in different places. Bounds are passed on as bounds.

The subject of series [1] is human coronary artery endothelial cells (HCAECs). Nature of the series: cells. As for the experimental part:
Human coronary artery ECs were cultured in a collagen-coated dish (AGC TECHNO GLASS Co., Shizuoka, Japan) in EBM-2 (CC-3156, Lonza, Besel, Switzerland) containing Supplements and Growth Factors (CC-4176, Lonza, Besel, Switzerland). The cells were cultured at 37 °C in a 5% CO2 incubator. The medium was changed every three days until the adherent cell monolayer reached 70–80% subconfluence. Subsequently, cells were detached from the dish using Accutase. The cell suspension was diluted with medium, adjusted to a concentration of 5 × 10^4 cells/mL, and seeded into a 96-well plate. The dish was incubated for two days at 37 °C in a 5% CO2 incubator. En ECs at passages 5–6 were used, and five 96-well plates were prepared.
(§1) IC50 is the drug concentration at which half of the cells undergo cell death; it serves as an indicator of cellular toxicity. […] IC50 values were measured using the GloMax® Navigator System (Promega, Madison, WI, USA). The test compounds were diluted in the culture medium and stored in an incubator until use. […] For each test compound, a control and 11 different concentrations were prepared, and the cytotoxicity after the addition of the compounds was examined. The RealTime-GloTM MT Cell Viability Assay kit (Promega, cat#G9711, USA) was used, and the substrate and Nano-luc were added to the medium in each well of a 96-well plate seeded with RSMCs and HCAECs, with 50 μL per well. The plate was incubated for 1–3 h in the incubator. Then, 50 μL of each prepared test compound was added to the plate. The IC50 values were measured using GloMax at 1, 5, 10, 30, and 60 min after the addition of the test compounds, and cytotoxicity was evaluated.

In series [2] the test system is rat smooth muscle cells (RSMCs). Nature of the series: cells. How it is done: Rat smooth muscle cells were cultured in DMED:F12 (Lonza, Besel, Switzerland) containing 10% fetal bovine serum, 1% penicillin/streptomycin solution (GA-1000; Lonza, Basel, Switzerland), and 1% stable glutamine (Wako, Tokyo, Japan) at 37 °C in a 5% CO2 incubator. The medium was changed every three days. Once the adherent cells reached 70–80% subconfluence, they were detached from the dish using Accutase (Nacalai Tesque, Kyoto, Japan). The cell suspension was diluted with DMED:F12 (+FBS) and adjusted to a concentration of 5 × 10^4 cells/mL, and then 100 μL of the suspension was seeded into each well of a 96-well dish (Nunc™ MicroWell™ 96-Well, Nunclon Delta-Treated, Flat-Bottom Microplate, Thermo Fisher, Waltham, MA, USA) and incubated for two days at 37 °C in a 5% CO2 incubator. Passage 6 smooth muscle cells were used, and five 96-well plates were prepared.
as §1

For series [3], the system named is rat abdominal aorta. Kind of series: Wire myograph vasodilation of norepinephrine-contracted rat abdominal aorta rings. The conditions noted are these: for concentration achieving maximal vasodilation effect (approximately 100% relaxation): 10 min after administration, contraction induced by 5 μM norepinephrine. How it is done: Consistent with our previous study, we applied a 1 gram-force (gf) load to approximately 1 mm cross-sectional slices of the rat abdominal aorta. Subsequently, we induced contraction by adding 5 μM norepinephrine. Various vasodilators were then added, and the concentration at which the vessels relaxed back to 1 gf was considered the concentration required for 100% relaxation.
A wire myograph system (Bio Research Co., Osaka, Japan) was used, as previously reported by Ogawa et al.. The rat abdominal aortae were cut into rings and manipulated using two L-shaped hooks. One hook was fixed, and the other was connected to an amplifier to measure the force exerted on the pulled vessel in grams. The rats were deeply anesthetized, and the abdominal aorta was dissected. The excised vessels were immersed in Ringer solution (NaCl 118 mM, KCl 4.7 mM, CaCl2/2H2O 2.5 mM, MgSO4/7H2O 1.2 mM, KH2PO4 1.2 mM, NaHCO3 25 mM, C6H12O6 11 mM, Na2EDTA 0.5 mM). The rat aorta was then sliced into approximately 1 mm-wide rings and hooked onto L-shaped hooks. The chamber was filled with 3 mL of Krebs-Ringer solution, and a gas mixture of 95% O2 and 5% CO2 was bubbled through. The chamber was maintained at 37 °C.
Once the wire myograph system was initiated, the wire was moved, and a load was exerted on the hook-attached chamber. The applied tensile force, amplified by a transducer and PowerLab (ADInstruments, Bella Vista, New South Wales, Australia), was continuously recorded as gram force using LabChart (ADInstruments, Bella Vista, New South Wales, Australia). The hook is pulled to apply a load of up to 1 gf. A resting period of approximately 10 min was required for the gradual relaxation of the vessel under tension from the hook. When relaxation reached a plateau, norepinephrine was added to the solution to achieve a final concentration of 5 μM. This causes the vessel to contract, increasing the load on the artery and surpassing 1 gf on the myograph recording. […] The reduction in load on the vessel in terms of gf was assessed to determine the relaxation rate and concentration (Figure 4). […]

The test system of series [4] is rat testicular vasculature. The arrangement: method as in doi:10.1007/BF00585581. As to conditions: local administration after epinephrine-induced vasoconstriction; cited from earlier work.
The conditions of series [5]: 4% lidocaine administered locally; humans; cited from earlier work.
For series [6], the system named is rat abdominal aorta. As to conditions: cited from earlier work.
For series [7] the following is noted: 1% lidocaine; cited from earlier work.
The conditions of series [8]: cited from earlier work.
Series [9] concerns NE-dependent contractions. The conditions noted are these: cited from earlier work.
On the set-up of series [10]: method as in PMID 25357051. The conditions noted are these: cited from earlier work.
Where [11] appears, read: Rattus norvegicus, 0.5 h, read-out: IC50 (cell viability), RSMCs, 30 min after addition.
Setting [12] is: Rattus norvegicus, 1 h, read-out: IC50 (cell viability), RSMCs, 60 min after addition.
Setting [13] is: Homo sapiens, Endothelial cell, 1 min, read-out: IC50 (cell viability).
Setting [14] is: Homo sapiens, Endothelial cell, 5 min, read-out: IC50 (cell viability).
The mark [15] stands for this setting: Homo sapiens, Endothelial cell, 10 min, read-out: IC50 (cell viability).
Setting [16] is: Homo sapiens, Endothelial cell, 0.5 h, read-out: IC50 (cell viability).
The mark [17] stands for this setting: Homo sapiens, Endothelial cell, 1 h, read-out: IC50 (cell viability).
[18] abbreviates: Rattus norvegicus, 1 min, read-out: IC50 (cell viability), RSMCs, 1 min after addition.
The mark [19] stands for this setting: Rattus norvegicus, 5 min, read-out: IC50 (cell viability), RSMCs, 5 min after addition.
Where [20] appears, read: Rattus norvegicus, 10 min, read-out: IC50 (cell viability), RSMCs, 10 min after addition.
Setting [21] is: read-out: IC50 (cell viability), RSMCs, 1 min after addition.

As to `O=[N+]([O-])OCC(CO[N+](=O)[O-])O[N+](=O)[O-]` [Nitroglycerine, nitroglycerin], the IC50 worked out at 35 µM in series [1] (Homo sapiens, Endothelial cell, 10 min, read-out: IC50 (cell viability), HCAECs, 10 min after addition); 38 µM in series [1] (Homo sapiens, Endothelial cell, 0.5 h, read-out: IC50 (cell viability), HCAECs, 30 min after addition); 38.8 µM in [1] (Homo sapiens, Endothelial cell, 1 h, read-out: IC50 (cell viability), HCAECs, 60 min after addition); 35.1 µM in series [1] (read-out: IC50 (cell viability), HCAECs, 10 min after addition); 130 µM in [2] (setting [11]); 109 µM in series [2] (setting [12]). Besides, the concentration for half-maximal inhibition (IC50) in [2] (read-out: IC50 (cell viability), RSMCs, 30 min after addition) was 134 µM. In addition, the “concentration achieving maximal vasodilation effect (approximately 100% relaxation)” value in the series with rat abdominal aorta [3] was found to be 0.022 mM. The relaxation entry in the series with rat abdominal aorta [3] (at the investigated concentrations, 10 min, 5 μM norepinephrine) is listed as “approximately 50%”.
As to `Cc1ccc(N(CC2=NCCN2)c2cccc(O)c2)cc1` [Phentolamine, phentolamine], the cellular toxicity entry in series [1] was “No cellular toxicity was observed”. Also, in series [4], the “onset of the effect” value is given as no more than 2 min and the sustained effect result is “up to 20 min”. Further, the cellular toxicity result in [2] is given as “No cellular toxicity was observed”.
`Cc1[nH]c(=O)c(C#N)cc1-c1ccc2nccn2c1` [Olprinone, olprinone]: the cellular toxicity result in [1] and in series [2] was “No cellular toxicity was observed” throughout.
On to `CCN(CC)CC(=O)Nc1c(C)cccc1C` [Lidocaine, lidocaine], for which the “peak concentration measured in peripheral blood” value in series [5] was 1.5 µg/mL. Besides, the relaxation entry with rat abdominal aorta [6] (1% lidocaine for 10 min) is “approximately 100%”. In the series on rat abdominal aorta [6] (10 min after administration, 5 μM norepinephrine, lidocaine data from previous research), the “concentration achieving maximal vasodilation effect (approximately 100% relaxation)” value was 35 mM. Besides, the “IC50 expressed as percent concentration” value in series [1] (EC, 1-min post-dose) is 0.70%; in series [2] (SMC, 1-min post-dose), 1.58%. In addition, the IC50 came out at 24400 µM in series [1] (setting [13]); 16800 µM in series [1] (setting [14]); 13500 µM in series [1] (setting [15]); 10300 µM in series [1] (setting [16]); 7640 µM in [1] (setting [17]); 55300 µM in series [2] (setting [18]). For the same molecule, the half-inhibitory concentration (IC50) was 27900 µM in series [2] (setting [19]); 16700 µM in series [2] (setting [20]); 10100 µM in [2] (setting [11]); 7100 µM in series [2] (setting [12]); 55300 µM in series [2] (setting [21]); 27900 µM in series [2] (read-out: IC50 (cell viability), RSMCs, 5 min after addition). Further, in series [2] (read-out: IC50 (cell viability), RSMCs, 10 min after addition), the IC50 came out at 16700 µM. Besides, the osmotic pressure in series [7] is 282 mOsm/L. Also, the “duration of antispasmodic effect” value in series [8] was 10 to 20 min. For the same molecule, the “onset of antispasmodic effect” value in series [8] is 45 to 90 s. Also, the “high concentrations relieving NE-dependent contractions and increasing blood flow” value in [9] is 4.5 to 15 mM. Also, the “low concentrations causing vasoconstriction” value in series [9] is 15 to 1500 µM.
As for `COc1ccc(Cc2nccc3cc(OC)c(OC)cc23)cc1OC` [Papaverine, papaverine], the concentration for half-maximal inhibition (IC50) is 56 µM in [1] (setting [13]); 4.04 µM in [1] (setting [14]); 4.29 µM in series [1] (setting [15]); 5 µM in [1] (setting [16]); 6.48 µM in [1] (setting [17]); 100 µM in series [2] (setting [18]). The IC50 was determined as 118 µM in series [2] (setting [19]); 13.5 µM in series [2] (setting [20]); 15.9 µM in series [2] (setting [11]); 1.5 µM in series [2] (setting [12]); 97 µM in [2] (setting [21]); 97 µM in series [2] (read-out: IC50 (cell viability), RSMCs, 1 min after addition, listed as papaverine hydrochloride). Moreover, the IC50 in [2] (read-out: IC50 (cell viability), RSMCs, 60 min after addition) turned out to be 1.46 µM. Moreover, the “time until effects become evident” value in series [8] (after local administration) was 1 to 5 min. Further, the “pH of clinically used concentrations” value in series [10] is listed as 3–4.5. In addition, the “concentration achieving maximal vasodilation effect (approximately 100% relaxation)” value in the series with rat abdominal aorta [3] came out at 0.18 mM.
